From patent publication US6407058B1, “Modifying the permeability of physiological barriers” (Eisai Co., Limited, priority 1996, dated 2002)

Key:
Assay type in all cases: cell-based
E-cadherin = assay: [32P] phosphorylation of immunoprecipitated E-cadherin, MDCK I cells; details: PDB-treated, same cell lysates
p100/p120 [1] = assay: p100/p120 electrophoretic mobility (band shift) by immunoblotting, MDCK I cells; details: 30 minutes
Description: The migration of the cellular proteins p100 and p120 during electrophoresis is increased following PDB-treatment of MDCK I cells. PDB (phorbol-12,13-dibutyrate) is a pharmacological activator of protein kinase C. MDCK I cells are a kidney derived epithelial cell line, with particularly well developed junctional complexes. Cells treated for 30 minutes with either 200 nM PDB (+) or vehicle (−) were then lysed into Laemmli sample buffer, and separated by electrophoresis using 6% acrylamide gels. Proteins were transferred to nitrocellulose and probed with antibodies to p100/p120, and then reprobed with E-cadherin and paxillin antibodies.
MDCK strain I and II cells were provided by Barry Gumbiner (memorial Sloan-Kettering Cancer Center, NY). LLC-PK1 and Caco-2 cells were obtained from the European Collection of Animal Cell Cultures. All cells were maintained at 37° C. under 5% CO2 in humidified air. MDCK strain I and II cells were maintained in MEM containing 10% FCS, 100 U/ml penicillin, 100 μg/ml streptomycin and 2 mM L-glutamine. Caco-2 cells were maintained in MEM containing 15% FCS, 1% non-essential amino acids and 1 μg/ml bovine insulin (Sigma I-6634). LLC-PK1 cells were grown in M199 (Gibco), 10% FCS, 100 U/ml penicillin, 100 μg/ml streptomycin and 2 mM L-glutamine. For whole cell lysate analysis, 10^5 cells were plated on 6.5 mm diameter, 0.4 μm, polycarbonate Transwell filters from Costar, in 0.25 ml of medium. The basolateral chamber contained 0.75 ml of medium. For immunoprecipitation, 5×10^5 cells were plated onto 24 mm Transwell filters, in 2 ml of medium, with 3 ml of medium in the lower chamber. Cells were used 4-7 days after plating. Tissue culture materials were from Gibco. Porcine brain endothelial cells were isolated and grown by modifications of a previously published procedure (Rubin et al., 1991). Brain capillary fragments were plated on dishes coated with rat tail collagen and human fibronectin. The cultures were fed every other day with growth medium composed of 50% astrocyte-conditioned medium and 50% Dulbecco's Modified Eagle Medium containing 10% plasma-derived serum, 125 μg/ml heparin, antibiotics and glutamine. They were incubated in a humidified atmosphere of 10% CO2 at 37° C. When the endothelial cells were approximately 50% confluent (after 4-6 days in culture), they were trypsinized and plated onto collagen-coated polycarbonate Transwell filters (6.5 mm diameter, 0.4 μm pore size, tissue culture treated, Costar Corp, Cambridge, Mass., U.S.A.) in the same medium (250 μl apically, 750 μl basolaterally). After 2-3 days on filters, the medium was switched to a 1:1 mixture of astrocyte-conditioned medium and a Dulbecco's Modified Eagle Medium-based, chemically defined medium (‘N2’, Rubin et al., 1991; Bottenstein and Sato, 1979). The final concentration of plasma-derived serum was 5%. Human umbilical vein endothelial cells were from Clonetics.
(§1) Whole cell lysates were prepared by rapidly replacing the culture medium in 6.5 mm with hot Laemmli sample buffer, followed by heating at 100° C. for 5 minutes. Immunoprecipitations were carried out at 4° C. Confluent monolayers of cells were washed rapidly with ice cold PBS (containing 0.9 mM CaCl2 and 0.5 mM MgCl2) before addition of 0.5 ml of the appropriate buffer. The filters were then gently scraped, and the lysate was removed and centrifuged at 14000× g. The supernatant was precleared with 10% (w/v) protein A-Sepharose in lysis buffer for 30-60 minutes. Appropriate primary antibodies were added to the lysate, and after 2-3 hours the immunecomplex was isolated, using rabbit anti-mouse secondary antibodies (Jackson Immunoresearch Labs Inc., West Grove, Pa.) and protein A-Sepharose. The beads were washed fives times with lysis buffer, and the bound protein was solubilized in SDS-sample buffer, followed by heating at 100° C. for 5 minutes.
Cell extracts or immunoprecipitates in SDS sample buffer were resolved by SDS-PAGE. […]

p100/p120 [2] = assay: p100/p120 electrophoretic mobility, MDCK strain II cells; details: 200 nM PDB, 30 minutes
Description: p100 and p120 electrophoretic mobility is affected by PDB in a number of different epithelial cell lines. LLC-PK1, (a porcine kidney cell line), MDCK strain II cells and gut-derived Caco-2 cells were treated with or without 200 nM PDB for 30 minutes, lysed into Laemmli sample buffer, separated by electrophoresis and analysed by immunoblotting.
MDCK strain I and II cells were provided by Barry Gumbiner (memorial Sloan-Kettering Cancer Center, NY). LLC-PK1 and Caco-2 cells were obtained from the European Collection of Animal Cell Cultures. All cells were maintained at 37° C. under 5% CO2 in humidified air. MDCK strain I and II cells were maintained in MEM containing 10% FCS, 100 U/ml penicillin, 100 μg/ml streptomycin and 2 mM L-glutamine. Caco-2 cells were maintained in MEM containing 15% FCS, 1% non-essential amino acids and 1 μg/ml bovine insulin (Sigma I-6634). LLC-PK1 cells were grown in M199 (Gibco), 10% FCS, 100 U/ml penicillin, 100 μg/ml streptomycin and 2 mM L-glutamine. For whole cell lysate analysis, 10^5 cells were plated on 6.5 mm diameter, 0.4 μm, polycarbonate Transwell filters from Costar, in 0.25 ml of medium. The basolateral chamber contained 0.75 ml of medium. For immunoprecipitation, 5×10^5 cells were plated onto 24 mm Transwell filters, in 2 ml of medium, with 3 ml of medium in the lower chamber. Cells were used 4-7 days after plating. […]

[3] = system: E-cadherin-associated p100/p120; assay: E-cadherin immunoprecipitation and p100/p120 immunoblotting, MDCK I cells
From the text: It has been shown that although some of the p100/p120 in cells is associated with adherens junctions, there is also a large pool that is not complexed with cadherins (at least by immunoprecipitation analysis). […] This procedure served to isolate only that portion of the cellular p100/p120 that associates with the cadherins. Following electrophoresis, and transfer to nitrocellulose, the p100 and p120 present in E-cadherin immunoprecipitates were detected by immunoblotting (Example 9A). […] In both cases, p100/p120 is shown to be present at regions of cell—cell contact.
as §1
For Immunoprecipitations, Triton lysis buffer or TDS lysis buffer was used. Triton lysis buffer (pH adjusted to 7.4 using NaOH) contained 25 mM Hepes, 1% Triton X-100, 2 mM EDTA, 0.1 M NaCl, 25 mM NaF, 1 mM vanadate, and protease inhibitors. […]
Cell extracts or immunoprecipitates in SDS sample buffer were resolved by SDS-PAGE. […] The filters were then extensively washed in PBS/0.5% Tween-20, and immunoreactive bands were detected by enhanced chemiluminescence (Amersham) following the manufacturers instructions.

CCCC(=O)O[C@@H]1[C@@H](C)[C@@]2(O)[C@@H](C=C(CO)C[C@]3(O)C(=O)C(C)=C[C@@H]23)[C@@H]2C(C)(C)[C@]12OC(=O)CCC [PDB, Phorbol-12,13-dibutyrate]
phosphorylation of E-cadherin (E-cadherin): no change | migration of p100 and p120 during electrophoresis (p100/p120 [1]; MDCK I cells, 200 nM PDB): migrate as faster, tighter bands | concentration of maximal effect on p100/p120 mobility (p100/p120 [1]; MDCK I, PDB 1 to 200 nM): 100 nM | migration of p100 and p120 (p100/p120 [2]): increased markedly | phosphorylation of E-cadherin-associated p100/p120 ([3]; PDB, Triton lysis buffer, E-cadherin immunoprecipitates): is dephosphorylated | phosphorylation of non-E-cadherin-associated p100/p120 ([3]; PDB, data not shown): subject to dephosphorylation | amount of p100 and p120 present in E-cadherin immunoprecipitates ([3]; after addition of PDB): no obvious change
